These are literature values, as cited in publication PMC7365549 (ACS Omega, 2020).

In data set [1] the target is 5-HT3. The note with it: read-out: Ki, binding to 5-HT3 receptor.
The target of data set [2] is T1, human serotonin receptor 5-HT3 (Homo sapiens, UniProt P46098).
T1 sequence (P46098 24-478): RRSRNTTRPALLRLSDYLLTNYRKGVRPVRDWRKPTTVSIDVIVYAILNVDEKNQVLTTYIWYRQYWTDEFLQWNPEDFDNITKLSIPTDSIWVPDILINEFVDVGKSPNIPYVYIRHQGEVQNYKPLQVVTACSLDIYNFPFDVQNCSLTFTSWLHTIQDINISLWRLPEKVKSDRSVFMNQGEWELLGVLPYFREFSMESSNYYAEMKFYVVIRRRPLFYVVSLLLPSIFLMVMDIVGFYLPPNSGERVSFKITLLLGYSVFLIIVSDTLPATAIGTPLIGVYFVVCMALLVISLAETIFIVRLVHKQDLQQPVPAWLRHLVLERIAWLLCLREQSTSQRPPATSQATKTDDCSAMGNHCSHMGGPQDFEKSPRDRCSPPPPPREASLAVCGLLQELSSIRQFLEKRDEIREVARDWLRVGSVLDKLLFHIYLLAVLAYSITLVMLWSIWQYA
The note with it: read-out: Inhibition Constants (Ki) 5-HT3; comparison values.

The target in data set [3] is T2, human serotonin receptor 5-HT1A (Homo sapiens, UniProt P08908).
T2 sequence (P08908 1-422): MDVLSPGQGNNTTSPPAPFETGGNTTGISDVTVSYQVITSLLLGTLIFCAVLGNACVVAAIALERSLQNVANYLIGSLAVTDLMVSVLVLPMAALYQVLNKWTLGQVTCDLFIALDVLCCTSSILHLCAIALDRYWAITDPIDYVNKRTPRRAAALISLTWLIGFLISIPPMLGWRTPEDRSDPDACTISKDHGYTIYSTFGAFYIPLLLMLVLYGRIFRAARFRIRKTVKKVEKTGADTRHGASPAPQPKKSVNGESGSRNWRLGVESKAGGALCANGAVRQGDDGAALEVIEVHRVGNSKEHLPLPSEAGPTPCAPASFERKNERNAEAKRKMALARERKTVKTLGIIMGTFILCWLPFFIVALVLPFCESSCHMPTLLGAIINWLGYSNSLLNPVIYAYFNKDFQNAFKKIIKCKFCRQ
Conditions: read-out: Inhibition Constants (Ki) 5-HT1A; comparison values.

For data set [4], the target named is human serotonin receptor 5-HT2A (Homo sapiens, UniProt P28223). The note with it: read-out: Inhibition Constants (Ki) 5-HT2A; comparison values.

A value given as a limit tells only on which side of the number the result lay.

Sequence of human serotonin receptor 5-HT2A (P28223 whole entry): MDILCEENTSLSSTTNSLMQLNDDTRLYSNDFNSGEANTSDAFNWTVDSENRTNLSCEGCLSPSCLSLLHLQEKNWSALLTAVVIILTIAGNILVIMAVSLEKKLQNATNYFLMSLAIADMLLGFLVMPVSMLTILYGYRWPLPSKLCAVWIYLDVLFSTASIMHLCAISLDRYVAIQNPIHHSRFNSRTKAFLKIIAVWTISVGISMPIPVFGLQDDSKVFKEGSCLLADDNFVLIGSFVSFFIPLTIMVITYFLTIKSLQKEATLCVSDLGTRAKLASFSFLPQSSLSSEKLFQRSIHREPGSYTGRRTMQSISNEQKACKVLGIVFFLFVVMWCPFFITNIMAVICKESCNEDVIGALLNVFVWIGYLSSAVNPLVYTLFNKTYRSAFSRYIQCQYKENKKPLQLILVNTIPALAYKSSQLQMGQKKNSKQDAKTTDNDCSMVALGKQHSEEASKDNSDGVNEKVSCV

In the case of `C[N+](C)(C)CCc1c[nH]c2ccc([O-])cc12` [Bufotenidine, bufotenidine], in data set [1], the Ki was 0.017 µM. For `CN(C)CCc1c[nH]c2cccc(O)c12` [psilocin], the Ki in data set [2] was more than 10 µM. As to `CN(C)CCc1c[nH]c2cccc(OP(=O)(O)O)c12` [psilocybin], the Ki in data set [2], in data set [3] and in data set [4] was more than 10 µM throughout.

A word on the Ki: it is a dissociation constant, usually derived from enzyme kinetics or from competition with a known ligand.
